Data set [1] deals with EV-A71. As to the kind of experiment: Extracellular viral RNA / virus yield in supernatant by qRT-PCR. It is filed as cell-based, Enterovirus A71 (SHZH98 strain). The note with it: RD cells; for Virus yield in the supernatants vs scrambled control: siRNA 48 hours, EV-A71 MOI of 10, nine hours p.i. On the procedure:
(§1) Total RNA was extracted from cell lysis using TRIzol reagent (Ambion, Life Technologies). Quantitative Real-time PCR (qRT-PCR) was performed using SYBR Green Mix (Life Technologies) on applied Biosystems StepOne real-time PCR system. The comparative ΔΔCt method was used to calculate the relative expression of microRNA or mRNA normalized to β-actin mRNA.
(§2) The mRNA level of Hsc70 was detected by qRT-PCR and the protein level was detected by western blotting. […] The extracellular virus levels were detected by qRT-PCR. […] The viral titer in the supernatant was determined by TCID50 assay.
To address the drug target potential of Hsc70 against EV-A71, experiments were conducted to examine if Ver-155008, a chemical inhibitor of Hsc70, could protect cells from EV-A71 infection. In this regard, RD cells were pre-treated for 2 hours with Ver-155008, then infected the cells with EV-A71 for another 9 hours at an MOI of 10.
In FIG. 5A, cell images under light microscope. In FIG. 5B, proteins levels of VP0/2 by western blot are shown. In FIG. 5C, EV-A71 IRES activity detected by luciferase activities are shown. (n=3; ***, p<0.001). In FIG. 5D, there is shown the extracellular viral RNA levels were examined by qRT-PCR.
In general terms: Real-time PCR tracks product formation cycle by cycle.

In data set [2] the test system is EV-A71. As to the kind of experiment: Viral titer in supernatant by TCID50 assay. It is filed as cell-based, Enterovirus A71 (SHZH98 strain). Particulars: RD cells, siRNA 48 hours, EV-A71 9 hours, culture media. How it is done:
(§3) Human rhabdomyosarcoma (RD) cells were purchased from ATCC (CCL-136). The Dulbecco's modified Eagle's medium (DMEM) with 10% fetal bovine serum (FBS) were used for cell culture, supplemented with 100 U/ml penicillin and 100 μg/ml streptomycin Propagation of EV-A71 (SHZH98 strain, accession number AF302996) was the same as previous report. The viral titer was measured by TCID50 assays.
as §2

For data set [3], the system named is EV-A71. Nature of the data set: Intracellular viral RNA (positive and negative strand) by qRT-PCR. It is filed as cell-based, Enterovirus A71 (SHZH98 strain). Particulars: RD cells. How it is done: as §1, §2
Another data set has as its system EV-A71 viral protein VP1. Nature of the data set: Western blot of viral protein in infected RD cells. It is filed as cell-based, Enterovirus A71 (SHZH98 strain). How it is done: (§4) Total protein was extracted from cell lysis in RIPA buffer with protease inhibitor and phosphatase Inhibitor (Roche). A total of 10-30 μg protein was loaded for SDS-PAGE and transferred onto PVDF membranes. Membranes were blocked with 5% non-fat milk in Tris-buffered saline buffer with 0.1% Tween-20 (TBST) for 1 hour at room temperature and incubated with primary antibodies overnight at 4° C. After washing with TBST three times, the membranes were incubated with the corresponding horseradish peroxidase (HRP)-conjugated secondary antibodies for 1 hour at room temperature. The Hsc70 protein level was detected using an Hsc70-specific antibody (sc-13132, Santa Cruz Biotechnology, USA). The band density was quantified using Quantity One software (Bio-Rad). GADPH served as loading control. The western blotting was carried out in three times for confirmation of results.
The mRNA level of Hsc70 was detected by qRT-PCR and the protein level was detected by western blotting. […] The extracellular virus levels were detected by qRT-PCR. […] The viral titer in the supernatant was determined by TCID50 assay. […]
(§5) In FIG. 5A, cell images under light microscope. […] In FIG. 5C, EV-A71 IRES activity detected by luciferase activities are shown. […]
In general terms: Immunoblotting shows a protein as a band on a membrane.

Data set [4] has as its system EV-A71. Nature of the data set: 2Apro-regulated viral protein production in HEK 293T cells, western blot (VP0/2 antibody). It is filed as cell-based, Enterovirus A71 (SHZH98 strain). Particulars: si-Hsc70 then 2Apro expression plasmid, EV-A71 MOI of 5 for 9 hours. On the procedure:
as §4
In FIG. 4A, HEK 293T cells were co-transfected with pHsc70, pIRES reporter plasmid and 2A^pro-expressing plasmid or empty vector for forty-eight hours, then the reporter activity was measured. In FIG. 4B, HEK 293T cell extract was incubated with the His-tagged 2A^pro, pulled down and then analyzed by western blotting. […] The cleavage products were assessed by immunoblotting. […] The viral protein production was detected by western blotting by using VP0/2 antibody (n=3).

The next data set relates to RD cells. Nature of the data set: Cell viability assay (MTT). It is filed as cell-based, Human. The note with it: serial dilution of Ver-155008 for 24 hours. How it is done: RD cells were seeded in 96-well plates (5,000 cells/well) and treated with serial dilution of Ver-155008 for 24 hours for cell viability assay. Ten μL of MTT was added to cultured cells in 100 μl culture medium and incubated at 37° C. for 4 h. Subsequently 100 μl of Dimethyl Sulfoxide were added. The optical density was measured at a wavelength of 570 nm. The cell viability assay was carried out in triplicates by three independent experiments as previously described.

For data set [5], the system named is EV-A71. As to the kind of experiment: Cytopathic effect (CPE) assay. It is filed as cell-based, Enterovirus A71 (SHZH98 strain). How it is done: as §3
CPE assay was used to test the antiviral effect of Ver-155008. Ver-155008 was from Selleckchem (Cat. No. S7751). RD cells were seed in 96-well plate at 37° C. overnight, was then treated with indicated concentration of Ver-155008. […] CPE was monitored and recorded from time to time under a phase-contrast microscope. The concentration required to reduce the EV-A71-induced CPE by 50% (IC50) was determined by using the nonlinear regression analysis of SPSS 17.0. Data were shown as mean values with standard deviations from three independent assays. Selectivity index (SI) is calculated by the ratio of CC50 to IC50.
Background: Protection from cytopathic effect is a common read-out in antiviral testing.

In a further data set the test system is EV-A71 IRES. Nature of the data set: Dual-luciferase IRES reporter assay. It is filed as cell-based. The note with it: Ver-155008 treatment.
Source text: Human Hsc70 (Accession NM_006597) was purchased from Addgene (Cat. No. 19541). The EV-A71 report plasmid pIRES was constructed as previously described. In detail, the EV-A71 reportor plasmid pIRES was constructed as follows: Renilla Luciferase gene (RLuc) was inserted into pcDNA4/HisMax B between BamHI and EcoRV sites; EV-A71 IRES was amplified from EV-A71 virus strain (SHZH98). Firefly Luciferase gene (FLuc) was amplified by using primer which has overlap sequence with the C-terminal of EV-A71 IRES. Finally, the construct IRES-FLuc were then amplified by using overlap PCR, and inserted into the downstream of the Renilla Luciferase gene between EcoRV and XbarI sites. […]
HEK 293T cells were seeded into a 24-well plate and incubated at 37° C. overnight and then transfected with Hsc70 expression plasmid (pHsc70) or siRNA. […] The activity of RLuc and FLuc were assessed by bioluminometer using a dual-luciferase reporter assay (Promega) according to the manufacturer.
FIG. 3A is concerned with 293T cells were co-transfected with si-Hsc70 and IRES reporter plasmid for forty-eight hours. […] Proteins which interact with the RNAs were detected by immunoblotting with specific antibody. […]
as §5

The source of these data is patent publication US11266675B2, “Methods of treatment of viral infection and uses of anti-HSC70 inhibitors” (priority 2018, dated 2022).

In general, CC50 refers to the concentration giving 50% cytotoxicity.

Turning to “5′-CCUAAAUUCGUAGCAAAUU-3′ (SEQ ID NO: 2) (other siRNA strand not cited, further chemistry not given here) [si-Hsc70-2, small interfering RNA targeting human Hsc70 (NM_006597), synthesized from Genepharma]”, the “Virus yield in the supernatants vs scrambled control” value with EV-A71 [1] is “obviously decreased”.
Turning to “5′-UAAUUCUAAGUACAUUGAGACCAGC-3′ (SEQ ID NO: 1) (other siRNA strand not cited, further chemistry not given here) [si-Hsc70-1, small interfering RNA targeting human Hsc70 (NM_006597), synthesized from Genepharma]”, in the data set with EV-A71 [2], the “Decrease of virus titer vs scramble siRNA control (TCID50)” value is given as “more than 10 times”. Further, the “Decrease of negative strand viral RNA level” value is listed as “about 86%” in the data set on EV-A71 [3] (EV-A71 MOI of 10, 3 hours p.i.); “about 70%” in the data set with EV-A71 [3] (EV-A71 MOI of 10, 6 hours p.i.); “about 70%” in the data set with EV-A71 [3] (EV-A71 MOI of 10, 9 hours p.i.). For the same molecule, the “Decrease of positive strand viral RNA level” value with EV-A71 [3] (EV-A71 MOI of 10, 3 hours p.i.) was “about 86%”; in the data set with EV-A71 [3] (EV-A71 MOI of 10, 6 hours p.i.) it was “about 70%”; in the data set on EV-A71 [3] (EV-A71 MOI of 10, 9 hours p.i.), “about 70%”. Besides, in the data set with EV-A71 [3] (EV-A71 MOI of 10, 12 hours p.i.), the “Inhibitory effect on viral RNA levels” value is “still significant”. For the same molecule, the “EV-A71 viral protein VP1 (western blot) vs control cells” value in the data set on EV-A71 viral protein VP1 (RD cells with Hsc70 knockdown, EV-A71 MOI of 10) is recorded as “significantly decreased”. The “Virus yield in the supernatants vs scrambled control” value with EV-A71 [1] is given as “obviously decreased”. For the same molecule, in the data set with EV-A71 [4], the “2Apro-elicited production of viral protein after knockdown of Hsc70” value is “failed to elicit the production of viral protein”.
Take `N#Cc1ccc(COC[C@H]2O[C@@H](n3c(NCc4ccc(Cl)c(Cl)c4)nc4c(N)ncnc43)[C@H](O)[C@@H]2O)cc1` [Ver-155008]: the half-maximal cytotoxic concentration (CC50) in the data set with RD cells (read-out: Cytotoxity CC50) was determined as 47.7 µM. Also, the CC90 with RD cells (read-out: Cytotoxity CC90) turned out to be 91.9 ± 0.94 µM. Further, in the data set with EV-A71 viral protein VP1 (RD cells pre-treated 2 hours with Ver-155008, EV-A71 MOI of 10, 9 hours), the “Viral VP1 levels (western blot)” value is listed as “obviously repressed by Ver-155008 in a dose dependent manner”. Besides, the IC50 in the data set with EV-A71 [5] (RD cells infected with EV-A71 at MOI of 0.01, read-out: Antiviral activity IC50 (concentration reducing EV-A71-induced CPE by 50%)) amounted to 2.01 µM. In the data set with EV-A71 [5] (RD cells, 8 μM, 2 h pre-treatment, EV-A71 MOI of 10 for 9 hours), the “Cytopathic effect (CPE)” value was “nearly no obvious cytopathic effect”. For the same molecule, in the data set with EV-A71 [5] (RD cells, EV-A71), the “Selective Index SI (CC50/IC50)” value stood at 23.71. Moreover, in the data set on EV-A71 [1] (8 μM, EV-A71 MOI of 10, 9 hours), the “Decrease of secreted virions (extracellular viral RNA, qRT-PCR)” value was found to be 55%. In the data set on EV-A71 IRES, the “EV-A71 IRES activity (luciferase)” value was “declined in a dose-dependent manner”.
